Laboratory results as given in patent US7763281B2, “Antihypertensive peptide and use thereof” (Da-Yeh University, priority 2007, dated 2010).
Like-named read-outs stand apart in the source and are kept apart here. Ends that are not written are not given here.

How the values were obtained:
[1] = test system: spontaneously hypertensive rats (SHRs); assay: Change of SBP and DBP in SHRs by tail-cuff method after single oral administration; assay type: in vivo, rat; settings: single oral dose 1 mg/kg BW
Description: Therefore, the antihypertensive activity of the aforementioned supernatant powder of the fermented dairy product were measured in SHRs and normotensive rats (Wistar-Kyoto rats, WKYs) to evaluate its potential applications to functional food for preventing hypertension. The male SHRs and male WKYs used in the present and following examples were purchased from National Laboratory Animal Center (Taipei, Taiwan) and fed with laboratory chow (Rodent laboratory chow 5001, Purina Co., USA). Blood pressures including SBP and DBP of 8- to 18-wk-old SHRs (body weight, 330-360 g) and 8- to 18-wk-old WKYs (body weight, 350-380 g) were measured by the tail-cuff method employing a tail-cuff detection system (Softron BP16; Softron, Tokyo, Japan). The antihypertensive activities of the test samples were evaluated by measuring the changes in SBP and DBP of SHRs and WKYs during 0-10 h after oral administration of respective samples.

[2] = test system: spontaneously hypertensive rats (SHRs); settings: cited from earlier work
[3] = assay type: in vitro ADME
Description: Briefly, the peptide was digested with a pepsin solution (pH 2.5) (EC 3.4.23.1; 1:10000; Sigma, USA) for 1.5 h at 37° C., followed by digestion with Corolase PP (pH 7.5) (pancreatic protease; Rohm, Darmstadt, German) for 2.5 h at 37° C. To remove the enzyme added, the digested peptide solution was filtered through a 3 kDa cut-off centrifugal filter (Microcon YM-3, 3 kDa NMWL, Millipore Co., USA) by centrifugation at 1,000×g for 10 min. The filtrate was then used in the analysis for peptide fragments by MALDI-TOF-MS (matrix-assisted laser desorption ionization-time of flight mass spectrometry).

Substance: Val-Pro-Pro (VPP; Peptide derived from casein) [tripeptide derived from β-casein, synthesized and tested as positive control]
- maximal DBP decrease ([1]; at 4 h): 18.0±2.1 mmHg
- maximal SBP decrease ([1]; at 4 h): 26.3±3.2 mmHg
- decrease of SBP ([2]; dose 1.6 mg/kg BW, at 6 h after oral administration (Nakamura et al., 1995)): 20 mmHg

Substance: VLSLSQPKVLPVPQKAVPQ [Val-Leu-Ser-Leu-Ser-Gln-Pro-Lys-Val-Leu-Pro-Val-Pro-Gln-Lys-Ala-Val-Pro-Gln]
- peptide fragments after simulated gastro-intestinal digestion [3]: did not contain Lys-Val-Leu-Pro-Val-Pro (SEQ ID NO: 3) or Lys-Val-Leu-Pro-Val-Pro-Gln (SEQ ID NO: 4)

Substance: KVLPVP [known peptide from casein hydrolysate (Maeno et al., 1996), synthetic comparator]
- maximal decrease in SBP ([1]; at 2 h): 27.8±3.3 mmHg
- maximal decrease in DBP ([1]; at 5 h): 17.5±4.2 mmHg

Substance: KVLPVPQ [known peptide from casein hydrolysate (Maeno et al., 1996), synthetic comparator]
- maximal decrease in SBP ([1]; at 3 h): 29.2±4.0 mmHg
- maximal DBP decrease ([1]; at 4 h): 14.4±3.2 mmHg
- decrease of SBP ([2]; single oral administration of 2 mg/kg BW, at 6 h (Maeno et al., 1996)): 31.5±5.6 mmHg
